Assay results taken from US20060229255A1, “Identification of n-alkylglycine trimers for induction of apoptosis” (priority 2003, published 2006).

Legend:
Assay type in all cases: cell-based, human
Bcl-xL = assay: Western blot of Bcl-xL phosphorylation; details: HT29 cells, 3, 6 and 24 h
Description: (§1) Western blotting. Floating and adherent cells were harvested and pellets were resuspended in RIPA buffer (50 mM Tris/HCl 7.4, 250 mM NaCl, 0,5% Igepal CA630, 5 mM EDTA, 1 mM PMSF, 10 μg/ml leupeptin, 50 mM NaF, 0.1 mM Na3VO4) or Deoxycholate buffer (10 mM phosphate buffer 7.4, […] NaCl, 0.5% Deoxycholate, 1% Igepal, 0.1% SDS, 1 mM PMSF). Protein concentration was determined with BCA Protein Assay Kit (Pierce) for RIPA extracts or Bradford assay (BioRad) for Deoxycholate extracts. Total protein (20-30 μg/lane) were separated by SDS-PAGE, transferred to PVDF membranes (Gellman), and probed with antibodies against Bcl-xL (Transduction); Bax (Santa Cruz); JNK (Santa Cruz); phospho-JNK (Cell Signaling); pRb (Pharmingen); pRb-phospho Ser780 (Cell Signalling); p130 (Santa Cruz); p107 (Santa Cruz); Cdk2 (Santa Cruz); p27^Kip1 (Santa Cruz); p21^Cip1 (Santa Cruz); actin (Sigma); or tubulin (ICN) and developed with ECL system (AmershamPharmacia biotech)
(§2) FIG. 6. (A) JNK is activated after N13-13-10C treatment. HT29 cells were treated for 1, 3, 6 and 24 h with N13-13-10C (35 μM), harvested and immunoblotted to assess activation of SAP/JNK MAP kinase. Western blot was first probed with the JNK-phosphor specific antibody, was stripped and reprobed with the pan-JNK antibody and actin to normalize total protein level. […]

Bax = assay: Western blot of Bax; details: HT29 cells
Description: as §1, §2

T98g glioblastoma cells = assay: BrdU incorporation assay (DNA synthesis); details: synchronized T98 g, 17 h + 2 h BrdU; read-out: IC50 BrdU incorporation (DNA synthesis inhibition)
Description: To confirm the G1 arrest of the cell cycle, we analyzed the DNA synthesis by an BrdU incorporation assay. Serial dilutions of the compounds N4-13-10C, N5-13-10C, N10-13-10C, N13-13-10C, etoposide or olomucine were assayed on synchronized T98 g cells as described in FIG. 7. A. Arrested cells were induced to cell cycle re-entry by re-addition of serum alone or with test compounds for 17 h, followed by 2 h in combination with 10 μM BrdU.
BrdU assay. T98g glioblastoma cells at 5000 cells/well in microtiter plates were arrested in G1-phase for 72 h by serum deprivation in MCDB 105 medium. By serum (10%) readdition, cells were treated with serial dilutions of the compounds for 17 h, and followed in combination 10 μM BrdU for […]. BrdU incorporation, i.e. DNA synthesis, was quantified with Cell Proliferation ELISA system, vs. 2 (AmershamPharmacia biotech) as described by the manufacturer.
FIG. 7. […] (A) T98 g cells were synchronized and reinitiated for 19 h with FCS alone or in combination with N10-13-10C (100 μM), N13-13-10C (100 μM), Olomucine (100 μM), etoposide (5 μM) or Taxol (30 nM). Cell cycle profile was assessed by propidium iodide DNA staining and analyzed by flow cytometry. The fraction of cells with G1, S, G2/M DNA content are shown as % of total cell population. (B. and C.) Synchronized T98 g cells were reinitiated with FCS alone or in combination with serial dilutions of N4-13-10C, N5-13-10C, N10-13-10C, N13-13-10C, Olomucine or etoposide for 19 h and labeled with BrdU during the last 2 h. BrdU incorporation was assessed by ELISA using anti-BrdU antibodies. An arbitrary value of 100% was assigned to the densiometric rate of DNA synthesis by untreated cultures and all other values are depicted relative to that reference. The values are means of three (n=3) replicates.

pRb, p21Cip1, p27Kip1 = assay: Western blot of G0/G1 checkpoint proteins in HT29 cells; details: for pRb levels compared to controls: HT29, after 24 h in culture
Description: as §1
(§3) FIG. 8. Expression of protein involved in G0/G1 checkpoint. (A.) HT29 cells were treated for 1, 3, 6 and 24 h with N10-13-10C (40 μM) or N13-13-10C (35 µM), harvested and immunoblotted to assess total pRb levels or Cdk4 specific phosphorylation at pRb-Ser^780 (PpRb). Western blot was first probed with the pRb-Ser^780 phosphorylation specific antibody, was stripped and reprobed with the pan-pRb antibody and tubulin to normalize total protein level. (B.) T98 g cells were synchronized by serum starvation and reinitiated with 10% FCS and DMSO (C), N13-13-10C (100 μM) or Taxol (30 nM) for 15, 17, 24 or 29 h. Western blot of total protein extracts was probed with antibodies to p130, pRb, p107, Cdk2, cycA, p27, p21 and actin. Unphosphorylated, hypophosphorylated as well as hyperphosphorylated pRb are detected (arrows). (C.) HT29 cells treated for 24 and 48 h with N13-13-10C (40 μM) or DMSO as control. Immunoblots were stained with antibodies to Cdk2, cycA, p21, p27 and actin.

JNK = assay: Western blot with JNK-phosphorylation specific antibody; details: HT29 cells
Description: as §1, §2

[1] = system: pRb, p130, p107, p27kip1, p21Cip1; assay: Western blot of G1 checkpoint proteins in synchronized T98 g cells
Description: as §1, §3

Row | SMILES | Bcl-xL phosphorylation (slower migrating band) (Bcl-xL) | Bax level (Bax) | IC50 (T98g glioblastoma cells) [µM] | pRb levels compared to controls (pRb, p21Cip1, p27Kip1) | Time of JNK activation (phosphorylation) (JNK) [h] | pRb phosphorylation at Ser780 respect to total pRb levels (pRb, p21Cip1, p27Kip1; HT29, 35 μM, 1-24 h) | p21Cip1 expression (pRb, p21Cip1, p27Kip1; HT29, 24 h and 48 h) | p27Kip1 expression (pRb, p21Cip1, p27Kip1; HT29, 24 h and 48 h) | Time of p21Cip1 peak levels ([1]; T98 g, 100 μM) [h] | p27kip1 level ([1]; T98 g, after 15 h of treatment) | Total pRb levels ([1]; synchronized T98 g, 100 μM) | p107 levels ([1]; synchronized T98 g, 100 μM) | p130 phosphorylation ([1]; synchronized T98 g, 100 μM) | p130 total levels ([1]; synchronized T98 g, 100 μM) | pRb hyperphosphorylation ([1]; synchronized T98 g, 100 μM)
1 | COc1ccc(CCN(CC(=O)N(CCc2ccccc2)CC(N)=O)C(=O)CNCCc2ccccc2)cc1 [N10-13-10C] | not observed | not increased | 100 | decreased | – | – | – | – | – | – | – | – | – | – | –
2 | COc1ccc(CCNCC(=O)N(CCc2ccc(OC)cc2)CC(=O)N(CCc2ccccc2)CC(N)=O)cc1 [N13-13-10C] | – | – | 150 | decreased | 3 to 6 | did not decrease | Over expression | Over expression | 17 | appreciable induction | decreased total pRb levels | down regulated | remains also hypophosphorylated | total levels are increased | prevented pRb hyperphosphorylation
